In US20160213788A1, “ACTIVE TARGETING ANTITUMOR DRUG AND PREPARATION METHOD THEREFOR” (NINGBO INSTITUTE OF MATERIALS TECHNOLOGY & ENGINEERING, …, priority 2013, published 2016):

Assays:
[1] = system: human endometrial tumors HEC-1B-Y5 cells; assay: MTT test (cell toxicity test); type: cell-based; settings: for survival rate of cell (%): HEC-1B-Y5, 4 h exposure then 44 h culture
Description: (§1) (1) MTT test (cell toxicity test)
(§2) 1. formulating a single cell suspension with a medium containing 10% fetal calf serum, and then seeding the suspension into 96-well plates in 1.0×10^5 cells per well. The volume of each well was 150 μL.
(§3) 2. placing the plates into a cell incubator of 37° C. and culturing for 24 h.
(§4) 3. absorbing and discarding the supernatant of the medium in the well, and adding […], fresh medium containing TXT or […], solution containing composition [D-Arg^25]-NPY-ANP-TXT with same concentration of TXT.
(§5) 4. placing into a cell incubator of 37° C. and culturing for 4 h, absorbing and discarding the supernatant of the medium in the well, and then replacing with fresh medium contain no medication or nanoparticle composition, and continuing to culture for 44 h.
(§6) 5. adding 10 μL MTT solution (5 mg/ml, in PBS, pH=7.4) into each well, placing the plates into a cell incubator of 37° C. and continuing to culture for 4 h, terminating the culture, and then absorbing and discarding the supernatant of the medium in the well.
(§7) 6. adding 150 μL DMSO into each well, oscillating for 10 min, so that the crystal was fully thawed.
(§8) 7. selecting 550 nm wavelength, and measuring the light absorbance for each well with enzyme-linked immunosorbent monitor and recording the results.
(§9) The cells used in cell experiments comprised human breast cancer MCF-7 cells, human endometrial tumors HEC-1B-Y5 cells (Purchased from American Type Culture Collection (ATCC) and Sciencell company(USA))

[2] = system: human breast cancer MCF-7 cells; assay: MTT test (cell toxicity test); type: cell-based; settings: for survival rate of cell (%): MCF-7, 4 h exposure then 44 h culture
Description: as §1, §2, §3, §4, §5, §6, §7, §8, §9

## CC(=O)O[C@@]12CO[C@@H]1C[C@H](O)[C@@]1(C)C(=O)[C@H](O)C3=C(C)[C@@H](OC(=O)[C@H](O)[C@@H](NC(=O)OC(C)(C)C)c4ccccc4)C[C@@](O)([C@@H](OC(=O)c4ccccc4)[C@H]21)C3(C)C [TXT, docetaxel]
[1]; CTXT 0.5 μg/mL
  survival rate of cell (%): 91%
[1]; CTXT 1.0 μg/mL
  survival rate of cell (%): 79%
[1]; CTXT 2.0 μg/mL
  survival rate of cell (%): 55%
[1]; CTXT 5.0 μg/mL
  survival rate of cell (%): 40%
[1]; CTXT 10.0 μg/mL
  survival rate of cell (%): 30%
[1]; HEC-1B-Y5 cells
  killing effect (in words): excellent killing effect
[2]; CTXT 0.5 μg/mL
  survival rate of cell (%): 90%
[2]; CTXT 1.0 μg/mL
  survival rate of cell (%): 80%
[2]; CTXT 2.0 μg/mL
  survival rate of cell (%): 50%
[2]; CTXT 5.0 μg/mL
  survival rate of cell (%): 20%
[2]; CTXT 10.0 μg/mL
  survival rate of cell (%): 20%
[2]; MCF-7 cells
  killing effect (in words): excellent killing effect
